Values of other authors in patent US9463189B2 (BPV Holdings, LLC, priority 2007, dated 2016).
Where a name gives a salt, the structure may show the parent alone.

What was measured:
PPAR = conditions: shown in US2006/0167012A1 and US2006/0205736A1; cited from earlier work
[1] = test system: methionine- and choline-deficient diet model of NASH; conditions: Nagasawa T et al., Eur. J. Pharmacol. (2006); cited from earlier work
[2] = test system: genetically obese rodent model; conditions: Gary-Bobo, M. et al., Hepatology 2007; cited from earlier work

C[C@@H]1CN(c2ccc(OC(F)(F)F)cc2)C[C@H](C)N1S(=O)(=O)c1cccc2c1C[C@@H](C(=O)O)C2 [Compound 1, (S)-4-[cis-2,6-Dimethyl-4-(4-trifluoromethoxy-phenyl)-piperazine-1-sulfonyl]-indan-2-carboxylic acid tosylate]
PPAR modulator activity (PPAR): PPAR modulators

Cc1cc(SCc2sc(-c3ccc(C(F)(F)F)cc3)nc2C)ccc1OCC(=O)O [GW501516]
fatty acid β-oxidation [1]: increased
hepatic steatosis [1]: improved hepatic steatosis
hepatic triglyceride deposition [1]: decreased
inflammation [1]: decreased
inflammatory cytokines or chemokines [1]: decreased
number of activated hepatic stellate cells [1]: decreased

Cc1c(C(=O)NN2CCCCC2)nn(-c2ccc(Cl)cc2Cl)c1-c1ccc(Cl)cc1 [rimonabant]
outcome in genetically obese rodent model [2]: positive outcome
